Assay [1] concerns Rattus norvegicus. In words: Serum creatinine concentration measured after intraperitoneal administration of 1 mg/kg of compound to rats(vehicle 4.74+/-0.31). The format is functional.
The test system of assay [2] is Rattus norvegicus. In words: Serum creatinine concentration measured after intraperitoneal administration of 0.1 mg/kg of compound to rats(vehicle 6.90+/-0.20). It is filed as functional.
For assay [3], the system named is Rattus norvegicus. The assay is described as follows: Effect on urinary excretion potassium and sodium after oral administration of 0.1 mg/kg to rats(potassium and sodium excretion in control rat is 0.180+/-0.017). It is filed as functional, Urine.
For assay [4], the system named is Rattus norvegicus. In words: Effect on urinary excretion potassium and sodium after oral administration of 0.4 mg/kg to rats(potassium and sodium excretion in control rat is 0.191+/-0.020). It is filed as functional, Urine.
Assay [5] concerns Rattus norvegicus. The assay is described as follows: Effect on urinary excretion potassium and sodium after oral administration of 1.6 mg/kg to rats(potassium and sodium excretion in control rat is 0.174+/-0.013). The format is functional, Urine.
Assay [6] has as its system Rattus norvegicus. In words: Urea nitrogen concentration measured after intraperitoneal administration of 1 mg/kg of compound to rats(vehicle 139.8+/-7.8). The format is functional.
Assay [7] has as its system Rattus norvegicus. In words: Percent inhibition of serum creatinine by the compound given as ratio of Cr value in treated to vehicle treated ones after intraperitoneal administration of 1 mg/kg of compound to rats(vehicle 4.74+/-0.31). The format is functional. The following applies: ip.
Assay [8] has as its system Rattus norvegicus. In words: Ratio of urinary excretion value (urinary volume) in treated rats to that in control rats, at a peroral dose of 0.1 mg/Kg. The format is functional, Urine.
In assay [9] the test system is Rattus norvegicus. The assay is described as follows: Ratio of urinary excretion value (urinary volume) in treated rats to that in control rats, at a peroral dose of 0.4 mg/Kg. It is filed as functional, Urine.
Assay [10] relates to Rattus norvegicus. The assay is described as follows: Ratio of urinary excretion value (urinary volume) in treated rats to that in control rats, at a peroral dose of 1.6 mg/Kg. The format is functional, Urine.
Assay [11] deals with Rattus norvegicus. In words: Ratio of sodium ion/potassium ion concentration in treated rats to that in control rats, at a peroral dose of 0.1 mg/Kg. It is filed as functional.
Assay [12] has as its system Rattus norvegicus. In words: Ratio of sodium ion/potassium ion concentration in treated rats to that in control rats, at a peroral dose of 0.4 mg/Kg. It is filed as functional.
The subject of assay [13] is Rattus norvegicus. The assay is described as follows: Ratio of sodium ion/potassium ion concentration in treated rats to that in control rats, at a peroral dose of 1.6 mg/Kg. It is filed as functional.
Assay [14] relates to Rattus norvegicus. The assay is described as follows: Ratio of urinary excretion value (Na+ concentration) in treated rats to that in control rats, at a peroral dose of 0.1 mg/Kg. The format is functional, Urine.
For assay [15], the system named is Rattus norvegicus. The assay is described as follows: Ratio of urinary excretion value (Na+ concentration) in treated rats to that in control rats, at a peroral dose of 0.4 mg/Kg. The format is functional, Urine.
In assay [16] the test system is Rattus norvegicus. The assay is described as follows: Ratio of urinary excretion value (Na+ concentration) in treated rats to that in control rats, at a peroral dose of 1.6 mg/Kg. It is filed as functional, Urine.
In assay [17] the test system is Rattus norvegicus. In words: Percent inhibition of serum creatinine by the compound given as ratio of Cr value in treated to vehicle treated ones after intraperitoneal administration of 0.1 mg/kg of compound to rats(vehicle 6.90+/-0.20). The format is functional. The following applies: ip.
Assay [18] deals with Rattus norvegicus. In words: Oral diuretic activity was measured after oral administration of 0.4 mg/kg to rats(control volume is 1.15+/-0.17). The format is functional, Urine.
The subject of assay [19] is Rattus norvegicus. The assay is described as follows: Oral diuretic activity was measured after oral administration of 1.6 mg/kg to rats(control volume is 0.86+/-0.09). It is filed as functional, Urine.
Assay [20] deals with Rattus norvegicus. In words: Urea nitrogen concentration measured after intraperitoneal administration of 0.1 mg/kg of compound to rats(vehicle 171.3+/-6.4). The format is functional.
In assay [21] the test system is Rattus norvegicus. The assay is described as follows: Oral diuretic activity was measured after oral administration of 0.1 mg/kg to rats(control volume is 1.05+/-0.11). The format is functional, Urine.
Assay [22] relates to Rattus norvegicus. The assay is described as follows: Percent inhibition of Urea nitrogen by the compound given as ratio of UN value in treated to vehicle treated ones after intraperitoneal administration of 1 mg/kg of compound to rats(vehicle 139.8+/-7.8). The format is functional. The following applies: ip.
The subject of assay [23] is Rattus norvegicus. The assay is described as follows: Percent inhibition of Urea nitrogen by the compound given as ratio of UN value in treated to vehicle treated ones after intraperitoneal administration of 0.1 mg/kg of compound to rats(vehicle 171.3+/-6.4). It is filed as functional. The following applies: ip.
The next assay addresses T1, Adenosine receptor A1 (Cavia porcellus, UniProt P47745).
T1 sequence (P47745 whole entry): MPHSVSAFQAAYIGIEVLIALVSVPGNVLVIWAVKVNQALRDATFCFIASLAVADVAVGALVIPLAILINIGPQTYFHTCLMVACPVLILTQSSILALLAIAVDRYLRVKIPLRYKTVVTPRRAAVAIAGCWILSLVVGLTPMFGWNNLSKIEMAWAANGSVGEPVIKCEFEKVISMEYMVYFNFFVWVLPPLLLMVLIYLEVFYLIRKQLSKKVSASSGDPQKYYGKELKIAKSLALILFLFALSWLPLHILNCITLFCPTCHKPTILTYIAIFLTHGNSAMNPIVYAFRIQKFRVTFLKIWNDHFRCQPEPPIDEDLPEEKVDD

The target in assay [24] is T2, Adenosine A2 receptor (Rattus norvegicus, UniProt P29276+P30543).
The test system of assay [25] is Rattus norvegicus. The assay is described as follows: Serum creatinine concentration measured after intraperitoneal administration of 10 mg/kg of compound to rats(vehicle 3.38+/-0.29). It is filed as functional.
The subject of assay [26] is Rattus norvegicus. In words: Effect on urinary excretion potassium and sodium after oral administration of 25 mg/kg to rats(potassium and sodium excretion in control rat is 0.209+/-0.007). It is filed as functional, Urine.
Assay [27] concerns Rattus norvegicus. The assay is described as follows: Ratio of urinary excretion value (urinary volume) in treated rats to that in control rats, at a peroral dose of 25 mg/Kg. It is filed as functional, Urine.
In assay [28] the test system is Rattus norvegicus. In words: Ratio of sodium ion/potassium ion concentration in treated rats to that in control rats, at a peroral dose of 25 mg/Kg. The format is functional.
The test system of assay [29] is Rattus norvegicus. The assay is described as follows: Ratio of urinary excretion value (Na+ concentration) in treated rats to that in control rats, at a peroral dose of 25 mg/Kg. It is filed as functional, Urine.
Assay [30] has as its system Rattus norvegicus. The assay is described as follows: Percent inhibition of serum creatinine by the compound given as ratio of Cr value in treated to vehicle treated ones after intraperitoneal administration of 10 mg/kg of compound to rats(vehicle 3.38+/-0.29). It is filed as functional. The following applies: ip.
The test system of assay [31] is Rattus norvegicus. In words: Oral diuretic activity was measured after oral administration of 25 mg/kg to rats(control volume is 1.02+/-0.02). It is filed as functional, Urine.
The test system of assay [32] is Rattus norvegicus. In words: Urea nitrogen concentration measured after intraperitoneal administration of 10 mg/kg of compound to rats(vehicle 114+/-8.7). The format is functional.
The test system of assay [33] is Rattus norvegicus. The assay is described as follows: Percent inhibition of Urea nitrogen by the compound given as ratio of UN value in treated to vehicle treated ones after intraperitoneal administration of 10 mg/kg of compound to rats(vehicle 114+/-8.7). The format is functional. The following applies: ip.
Assay [34] deals with T2, Adenosine A2 receptor. The source holds these as a separate data set.
Description: Binding affinity towards adenosine A2 receptor in rat striatal membranes using N-[3H]-ethyladenosin-5''-uronamide as radioligand

Description for Adenosine receptor A1: Binding affinity against adenosine A1 receptor in guinea pig forebrain membranes using N6-[3H]cyclohexyladenosine as radioligand

Turning to `CCn1c(=O)c2nc(C3CCCC3)[nH]c2n(CC)c1=O`, the Cr in the assay with Rattus norvegicus [1] came out at 2.28 mg/dL; with Rattus norvegicus [2], 5.48 mg/dL. The figures for the Na in the assay with Rattus norvegicus [3], in the assay with Rattus norvegicus [4] and in the assay on Rattus norvegicus [5] were 0.206 m equiv 6hr-1 100g-1, 0.342 m equiv 6hr-1 100g-1 and 0.24 m equiv 6hr-1 100g-1, respectively. The UN was 65.5 mg/dL with Rattus norvegicus [6] and 143.9 mg/dL in the assay with Rattus norvegicus [20]. In addition, the results for the inhibition in vivo at 1 mg/kg in the assay with Rattus norvegicus [7] and with Rattus norvegicus [22] were 52% and 53%, respectively. Further, the T/C in the assay on Rattus norvegicus [8] is recorded as 1.03; in the assay with Rattus norvegicus [9] it was 1.64; in the assay on Rattus norvegicus [10], 2.43; in the assay with Rattus norvegicus [14], 1.15; in the assay on Rattus norvegicus [15] it was 1.79; in the assay with Rattus norvegicus [16], 2.09. Further, the “Na+/K+” value is 1 in the assay on Rattus norvegicus [11], 1.54 with Rattus norvegicus [12] and 1.56 with Rattus norvegicus [13]. The values for the inhibition in vivo at 0.1 mg/kg with Rattus norvegicus [17] and in the assay on Rattus norvegicus [23] were 21% and 16%, respectively. In addition, the results for the Urine volume with Rattus norvegicus [18], in the assay on Rattus norvegicus [19] and in the assay on Rattus norvegicus [21] were 1.89 ml 6hr-1 100g-1, 2.09 ml 6hr-1 100g-1 and 1.09 ml 6hr-1 100g-1, respectively. In addition, the results for the Ki at Adenosine receptor A1 and at Adenosine A2 receptor [24] were 19 nM and 440 nM, respectively.
In the assay on Rattus norvegicus [25], `Nc1nc2ccc(Cl)cc2n2c(-c3ccccc3)nnc12` returned a Cr of 4.58 mg/dL. Besides, the Na in the assay on Rattus norvegicus [26] is 0.186 m equiv 6hr-1 100g-1. In addition, the T/C amounted to 0.85 in the assay on Rattus norvegicus [27] and 0.89 in the assay with Rattus norvegicus [29]. Besides, the “Na+/K+” value with Rattus norvegicus [28] is 1.05. Further, the inhibition in vivo at 10 mg/kg is -36% with Rattus norvegicus [30] and -21% with Rattus norvegicus [33]. The compound further registered a Urine volume with Rattus norvegicus [31] of 0.87 ml 6hr-1 100g-1. In the assay with Rattus norvegicus [32], this compound came in with a UN of 137.8 mg/dL. For the same compound, the results for the inhibitory constant (Ki) at Adenosine receptor A1, at Adenosine A2 receptor [34] and at Adenosine A2 receptor [24] were 6900 nM, 21 nM and 5.1 nM, respectively.

(Values after ChEMBL document CHEMBL1125524, “Adenosine A1 antagonists. 2. Structure-activity relationships on diuretic activities and protective effects against acute renal failure” (J Med Chem, 1992).)
